Measured values published in patent publication US10408843B2, “Compositions and methods for detecting S-nitrosylation and S-sulfinylation” (The Regents of the University of Michigan, priority 2013, dated 2019).

Experiments:
[1] = tested on: S-nitrosylated proteins in mammalian cell lysates; experiment: Gel-based labeling of endogenous S-nitrosylated proteins in cell lysates; assay type: biochemical, human; conditions: lysates denatured, alkylated with iodoacetamide; streptavidin detection
Method: FIG. 8. Dose-dependent labeling of S-nitrosylated proteins by biotin-SO2H. 293T and PANC1 cells were lysed in 6 M urea/PBS and alkylated with 50 mM iodoacetamide for 30 minutes, followed by incubation with increasing concentrations of biotin-SO2H for 45 minutes.
Next, the reactivity of sulfinic acids with native S-nitrosylated proteins was examined. Biotin and fluorescein N-hydroxysuccinimide (NHS) esters were directly coupled to the biological sulfinic acid metabolite hypotaurine (biotin-SO2H) or the sulfonic acid metabolite taurine (biotin-SO3H). Each probe was incubated with mammalian cell lysates pre-alkylated with excess iodoacetamide (FIG. 1b) in 6 M urea/phosphate buffered saline (PBS), and separated by non-reducing SDS-PAGE for transfer to nitrocellulose and streptavidin detection. […]
Cells and lysates were protected from light and kept on ice throughout the labeling protocol, except when noted. […] Lysate protein concentrations were quantified using the Bio-Rad DC assay, and diluted 3 mg/mL in 6 M urea/PBS. […] For in-gel fluorescence analysis, samples were loaded without boiling using non-reducing SDS-PAGE loading buffer for SDS-PAGE separation. […] In-gel fluorescence and streptavidin blots were analyzed using a GE typhoon scanner at appropriate wavelengths (488/526 for fluorescein and 633/670 for Cy5-Streptavidin).

293T cell lysates = experiment: SILAC quantitative mass spectrometry of biotin-SO2H enrichment; assay type: biochemical, human; conditions: quantified in ≥3 replicates, ≥3 quantified peptides; 400 μM probe
Method: FIG. 16. Quantitative analysis of biotin-SO2H enrichment in 293T cell lysates. Samples were prepared in two sets, one with biotin-SO2H in the “Light” matched with biotin-SO3H in the “Heavy” (N=2), and the other in reverse (N=2). Each was ran as two technical replicated and SILAC ratios (biotin-SO2H/biotin-SO3H) were combined across experiments. “Directions Detected” describes the set of SILAC samples where the protein was quantified. FORWARD refers to biotin-SO2H (light)/biotin-SO3H (heavy), and REVERSE is the opposite direction, biotin-SO2H (heavy)/biotin-SO3H (light). […] Label-free quantification was performed using the Top3 method from the biotin-SO2H labeled pair.
Next, biotin-SO2H labeling was combined with stable-isotope labeling with amino acids in cell culture (SILAC) for quantitative mass spectrometry annotation of endogenous S-sulfinylation in mammalian cells. […] Peptides were analyzed using data-independent acquisition methods in combination with ion mobility separation (HDMS^E) and mobility-dependent collision energy assignment for enhanced fragmentation (see, e.g., Distler, U. et al. Nat Methods (2013)). Through a combination of 4 biological replicates, each with 2 technical replicates, a total of 992 proteins were identified with SILAC ratios >5 (biotin-SO2H/biotin-SO3H), quantified in ≥3 replicates, and represented by ≥3 quantified peptides (FIG. 16). […]

O=C(CCCC[C@@H]1SC[C@@H]2NC(=O)N[C@@H]21)NCCS(=O)O [biotin-SO2H, 2-(5-((3aS,4S,6aR)-2-oxohexahydro-1H-thieno[3,4-d]imidazol-4-yl)pentanamido)ethanesulfinic Acid]
labeling of mammalian proteins [1]: labels distinct mammalian proteins
proteins identified with SILAC ratios >5 (biotin-SO2H/biotin-SO3H) (293T cell lysates): 992 proteins
